Results from the supplement of paper PMC10307832.

How the values were obtained:
Assay in all cases: relative viability (nuclei count vs DMSO), 5 days (fraction); higher = more cells survive
[1] = compound: COc1cc(N2CCC(N3CCN(C)CC3)CC2)ccc1Nc1ncc(Cl)c(Nc2ccccc2S(=O)(=O)C(C)C)n1 [NVP-TAE684] + NC(=O)Nc1cc(-c2cccc(F)c2)sc1C(=O)N[C@H]1CCCNC1 [AZD7762] (partner 0.2 µM)
Outline: (§1)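 Lung cancer cell lines were pin-tool dosed in 1536-well plates on the day after seeding, with either a lone drug or a fixed anchor-drug dose plus five library-drug doses (not always all listed) in √10 steps. Nuclei were counted on 4× images after 5 days. Relative viability is the ratio of treated-well to vehicle-well nuclei counts, with each value a median of duplicate plates.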

[2] = compound: COc1cc2/c(=N/c3ccc(Br)cc3F)nc[nH]c2cc1OCC1CCN(C)CC1 [Vandetanib] + NC(=O)Nc1cc(-c2cccc(F)c2)sc1C(=O)N[C@H]1CCCNC1 [AZD7762] (partner 0.2 µM)
Outline: as §1

[3] = compound: COc1cc2/c(=N/c3ccc(Br)cc3F)nc[nH]c2cc1OCC1CCN(C)CC1 [Vandetanib] + O=C(CCCCCCC(=O)Nc1ccccc1)NO [Vorinostat] (partner 1 µM)
Outline: as §1

[4] = compound: COc1cc2/c(=N/c3ccc(Br)cc3F)nc[nH]c2cc1OCC1CCN(C)CC1 [Vandetanib] + Cc1nc(Nc2ncc(C(=O)Nc3c(C)cccc3Cl)s2)cc(N2CCN(CCO)CC2)n1 [Dasatinib] (partner 0.075 µM)
Outline: as §1

Cell Line	relative viability ([1]; first compound 0.2 µM)	relative viability ([1]; first compound 2 µM)	relative viability ([2]; first compound 0.02 µM)	relative viability ([2]; first compound 0.06325 µM)	relative viability ([2]; first compound 0.2 µM)	relative viability ([2]; first compound 0.6325 µM)	relative viability ([2]; first compound 2 µM)	relative viability ([3]; first compound 0.02 µM)	relative viability ([3]; first compound 0.06325 µM)	relative viability ([3]; first compound 0.2 µM)	relative viability ([3]; first compound 0.6325 µM)	relative viability ([3]; first compound 2 µM)	relative viability ([4]; first compound 0.02 µM)	relative viability ([4]; first compound 0.06325 µM)	relative viability ([4]; first compound 0.2 µM)	relative viability ([4]; first compound 0.6325 µM)	relative viability ([4]; first compound 2 µM)	relative viability ([1]; first compound 0.6325 µM)
EMC-BAC-2	1.12	0.536	1.08	1.08	1.12	1.11	0.973	0.506	0.469	0.431	0.5	0.369	0.332	0.312	0.327	0.295	0.3	–
NCI-H1437	1.21	1.07	1.16	1.12	1.1	1.2	1.09	0.824	0.819	0.866	0.937	0.995	0.401	0.45	0.254	0.405	0.222	1.09
NCI-H1944	0.507	0.348	0.489	0.611	0.555	0.462	0.471	0.51	0.542	0.526	0.476	0.602	0.208	0.218	0.205	0.195	0.215	0.441
NCI-H838	–	0.853	0.902	0.895	0.976	1.03	0.894	0.731	0.679	0.772	0.78	0.68	0.278	0.286	0.341	0.29	0.27	0.857
HCC-827	0.193	0.18	0.211	0.204	0.165	0.126	0.124	0.788	0.82	0.815	0.369	0.327	0.489	0.276	0.284	0.152	0.13	0.177
NCI-H2342	0.463	0.349	0.483	0.479	0.707	0.537	0.365	0.754	0.674	0.785	0.739	0.645	0.339	0.335	0.321	0.315	0.361	0.437
LOU-NH91	0.782	0.532	0.759	0.765	0.678	0.718	0.755	0.942	0.806	0.559	0.883	0.886	0.53	0.433	0.506	0.442	0.317	0.425
NCI-H3122	0.22	0.127	0.917	1	1.01	0.926	1.01	0.95	0.965	1.08	1.02	0.994	0.683	0.673	0.122	0.76	0.797	0.184
NCI-H1563	–	–	–	–	–	–	–	–	–	–	–	–	0.44	0.443	0.462	0.472	0.454	–
NCI-H1734	0.481	0.432	0.554	0.511	0.557	0.517	0.545	0.87	0.71	0.755	0.852	0.815	0.471	0.497	0.44	0.469	0.468	0.443
EPLC-272H	0.175	0.208	0.23	0.428	0.244	0.201	0.189	0.41	0.466	0.447	0.441	0.447	0.301	–	0.415	0.352	0.321	0.175
RERF-LC-KJ	0.97	0.729	–	0.985	1.06	1.04	0.766	0.689	0.607	0.724	0.608	0.536	0.767	0.868	0.756	0.758	0.683	0.985
HARA	0.305	0.258	0.262	0.448	0.396	0.18	0.312	0.496	0.477	0.521	0.616	0.524	0.305	0.264	0.239	0.237	0.303	0.286
NCI-H1651	0.423	0.401	0.431	0.425	0.462	0.442	0.486	0.53	0.618	0.62	0.535	0.593	0.313	0.461	0.431	0.394	0.386	0.48
NCI-H2405	0.767	0.31	0.703	0.651	0.674	0.698	0.571	1.02	0.885	0.97	1.14	0.898	0.217	0.183	0.2	0.187	0.199	0.598
NCI-H596	1.03	0.839	1.15	1.05	1.12	1.02	1.17	1.37	0.562	0.657	0.666	0.693	0.498	0.659	0.646	0.585	0.596	0.988
